Where a name gives a salt, the structure may show the parent alone.
Columns and labels:
[1] = Chick growth feeding trial (weight gain and feed conversion, treated vs untreated chicks); assay type: in vivo
[2] = Pig growth feeding trials I-III (weight gain and feed efficiency, treated vs untreated pigs); assay type: in vivo; settings: Example 2, growing period about 18-90 kg
Description: The following examples are included to illustrate the improved feed utilization and/or tissue producing effect of the substituted phenylphosphinic acid derivatives of the present invention. It should be understood that examples are included to illustrate the practice of the present invention and are not intended to limit the scope of the invention. It should be further understood that the dosage levels recited in the following examples are only illustrative and are not meant to limit the scope of the invention. Unless otherwise noted, all percentages are by weight. Comparisons are between the numerical average for treated animals and the numerical average for untreated animals.
A swine diet for growing pigs prepared from the following types and amounts of ingredients:
Three trials were conducted wherein pigs were administered 2-methoxyphenylmethylphosphinic acid at dosage levels of 2.0, 10.0, 20.0 (TRIAL I); 0.5, 2.0, 8.0 (TRIAL II); and 0.5, 2.0, 8.0 (TRIAL III) milligrams per kilogram of finished feed throughout a growing period of about 18-90 kg.

[3] = trials I and II, 2.0 mg/kg finished feed
[4] = Example 10, 1, 20, 60 or 100 mg per kg feed
[5] = Examples 4 and 6, 1 mg and 10 mg per kg feed

In the case of `CP(=O)(O)c1ccccc1N` [2-aminophenylmethylphosphinic acid hydrochloride salt], the “average daily weight gain” value ([1]; Example 9, 2.0 mg per kg feed) is reported as “higher average daily weight gain than untreated chicks”.
For `CP(=O)(O)c1ccccc1C(=O)O` [2-carboxylphenylmethylphosphinic acid, 2-carboxyphenylmethylphosphinic acid], the “average daily weight gain” value ([1]; Example 7, 11 mg per kg feed) was “higher average daily weight gain than untreated chicks”.
For `CP(=O)(O)c1ccccc1Cl` [2-chlorophenylmethylphosphinic acid], the daily weight gain ([1]; Example 5, 0.5 mg per kg feed) was “higher daily weight gain than untreated chicks”.
In the case of `CCP(=O)(O)c1ccccc1OC` [2-methoxyphenylethylphosphinic acid], the “average daily weight gain” value ([1]; Example 8, 10 mg per kg feed) is reported as “higher average daily weight gain than untreated chicks”.
For `COc1ccccc1P(C)(=O)O` [2-methoxyphenylmethylphosphinic acid], the weight gain ([2]; 10.0 and 20.0 mg/kg finished feed, vs untreated) was “gained weight faster than untreated pigs”, the daily weight gain [2, 3] was “faster daily weight gain” and the feed efficiency [2, 3] was “improved feed efficiency”. For the same compound, the average daily gain [1, 4] was “higher average daily gain” and the “conversion of feed to weight gain” value [1, 4] was “converted feed to weight gain more efficiently than untreated chicks”.
With `Cc1ccccc1P(C)(=O)O` [2-methylphenylmethylphosphinic acid] the “conversion of feed to weight gain” value ([1]; Example 3, 0.5 to 4.0 mg/kg feed, 45-48 days) was “converted feed to weight gain more efficiently than untreated chicks”.
In the case of `CP(=O)(O)c1ccccc1[N+](=O)[O-]` [2-nitrophenylmethylphosphinic acid], the “average daily weight gain” value [1, 5] is reported as “higher average daily weight gain than untreated chicks”.
For `CP(=O)(O)c1ccccc1O` [Ammonium 2-hydroxyphenylmethylphosphinate], the “average daily weight gain” value [1, 5] was “higher average daily weight gain than untreated chicks”.

From patent US4618604A, “Composition and method for improving feed utilization or tissue production in animals” (Monsanto Company, priority 1984, dated 1986)
